Measured values from patent publication US20040241706A1, “Highly specific modulators of GTPases for target validation” (IRM, LLC, priority 2002, published 2004).
Where a chain is given by its changes, count along the chain named.

Legend:
GTPase mutant N116C = molecular target: T1, GTPase mutant N116C (Homo sapiens, UniProt P01112, N116C); test: Ras inhibitor / guanine nucleotide exchange assay with 3H-GDP, mutant N116C; type: binding; conditions: FIG. 17
T1 construct: made in house; host or cells: E. coli BL21-Gold, pGEX vector
Text: (§1) One exemplary assay which can be used are Ras “inhibition” or “guanine nucleotide exchange” assays, as schematically illustrated in FIG. 8, and described in detail in the Examples hereinbelow. The assay detects inhibition of wild-type and mutant Ras proteins by using ^3H-labelled GDP and cold (non-tritiated) synthetic Ras inhibitors.
FIG. 15 provides a bar chart depicting the ability of various guanosine-based modulators to displace radiolabeled GDP from the GTPase mutant N116C.
FIGS. 16 and 17 graphically illustrates the inhibitory effect of the C-6 or N-7 substituted GMP-scaffold modulators on the double mutant N116G-T114C and the mutant N116C, respectively. […] The inhibitory effect was in the range of approximately 50-80%. […]
(§2) For example, purified mutant Ras (19A-116A) or wild type H-Ras protein (0.5 to 20 μg) was incubated in 40 μL of GTP exchange buffer (50 mM Tris-HCl pH 7.5, 50 mM NaCl, 5 mM EDTA, 1 mM DTT, 1 mg/mL BSA) containing either DMSO, GTP (100 μM) or a modulator (100 μM) for 30 min at 25° C. […] Filters were dried and the bound radioactivity was measured by scintillation counting (Beckman, #LS6500).
(§3) Cold GDP was used as a positive control. […] All of the measurements are in comparison to a background radioactivity count, such that the level of inhibition for a given compound was determined by the number of counts in comparison to the control. […]

mutant Ras (19A-116A) = molecular target: T2, mutant Ras (19A-116A) (Homo sapiens, UniProt P01112, L19A/N116A); test: Ras inhibitor / guanine nucleotide exchange assay with 3H-GDP, double mutant L19A-N116A; type: binding; conditions: for IC50: mutant (19A-116A) Ras, FIG. 34, read-out: IC50 (concentration at which 50% inhibition of GTP binding is observed); for displacement of radioactive GDP from the mutant GTPase: remaining radioactivity count
T2 construct: made in house; host or cells: E. coli BL21-Gold, pGEX vector
Text: as §1
FIG. 11 graphically illustrates the inhibition of double mutant L19A-N116A (SEQ ID No. 11) by various C-6 substituted GTP moieties (compounds 39 through 42, presented as a-d in the figure), as compared to the negative control (nothing added to displace the radiolabeled GDP), positive control (cold GDP), and background count (no GTPase enzyme added).
The GTPase modulators of the present invention were screened against wild-type and/or mutant GTPases for their effectiveness as GTPase inhibitors. Ras inhibitor assays were performed to test the activity of the synthesized modulators against various wild-type and/or mutant GTPases of interest, and/or to compare the different modulators based upon the relative observed level of inhibition.
For example, purified mutant Ras (19A-116A) or wild type H-Ras protein (0.5 to 20 μg) was incubated in 40 μL of GTP exchange buffer (50 mM Tris-HCl pH 7.5, 50 mM NaCl, 5 mM EDTA, 1 mM DTT, 1 mg/mL BSA) containing either DMSO, GTP (100 μM) or a modulator (100 μM) for 30 min at 25° C. This pre-incubation was followed by the additions of 2 μCi ^3H-GDP (NEN, #NET966) and, 10 min later, 25 mM MgCl2. After another 5 min of incubation, the reaction mixture was applied to a nitrocellulose filter (Millipore, #HAWP02500) pre-wetted with wash buffer (50 mM Tris-HCl pH 7.5, 10 mM MgCl2), the filter was then washed using 10 mL of wash buffer. Filters were dried and the bound radioactivity was measured by scintillation counting (Beckman, #LS6500).
Cold GDP was used as a positive control. Since the positive control naturally replaces the radioactive GDP in both the wild-type and mutant GTPase proteins, significant drops in radiolabeling are observed. Water was used as a negative control. All of the measurements are in comparison to a background radioactivity count, such that the level of inhibition for a given compound was determined by the number of counts in comparison to the control. Thus, a high radioactivity count is indicative of a high level of binding between the mutant GTPase and the radioactive GDP.

single mutant N116G Ras = molecular target: T3, single mutant N116G Ras (Homo sapiens, UniProt P01112, N116G); test: Ras inhibitor / guanine nucleotide exchange assay with 3H-GDP, single mutant N116G; type: binding; conditions: FIG. 12 panel B
T3 construct: made in house; host or cells: E. coli BL21-Gold, pGEX vector
Text: as §1
FIG. 12 provides the inhibitor assay results for compounds 43 through 45 (e.g, respectively) as compared to the positive control GTP, for the wild-type Ras protein (panel A) and the single mutant N116G (SEQ ID No. 7). […] Thus, substitution of the N116 residue with a glycine appears to be a favorable mutation leading to expansion of the GTP binding pocket. […]
as §2, §3

wild-type Rap1B enzyme = molecular target: T4, wild-type Rap1B enzyme (Homo sapiens, UniProt P61224); test: Selective binding, wild-type Rap1B; conditions: FIG. 33B
T4 construct: GST (N); made in house; host or cells: E. coli BL21-Gold, pGEX-4T (described for the mutant; inferred for the wild type)
T4 sequence (P61224 1-184): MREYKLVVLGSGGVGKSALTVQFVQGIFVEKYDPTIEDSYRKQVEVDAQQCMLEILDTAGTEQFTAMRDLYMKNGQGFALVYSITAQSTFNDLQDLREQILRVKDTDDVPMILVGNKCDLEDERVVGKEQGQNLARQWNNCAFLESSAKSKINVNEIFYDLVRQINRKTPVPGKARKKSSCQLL
Text: (§4) To confirm the general applicability of the methods and compositions of the present invention in the context of GTPases other than H-Ras, alanine substitutions at amino acids corresponding to positions 19 and 116 of Ras were introduced into the Rap1B GTPase. As shown in the alignment of Table 1, the identical amino acid residues, i.e., leucine at position 19, and asparagine at position 116, are present in Rap1B.
(§5) The mutant Rap1B protein construct was made as described above with respect to the Ras mutant proteins. All mutant proteins were made in the pGEX-4T bacterial expression system using the Quickchange protocol […] according to the manufacturer's instructions. Mutant Rap1B cDNAs were transformed individually in BL21-Gold competent cells (Stratagene) according to the manufacturer's instructions. An overnight culture of BL21-Gold cells containing one of the GST-Rap1B plasmids described above was diluted 1:50 in Superbroth medium (Q-Biogene) supplemented with 50 mg/L carbenicillin. After it had grown to an OD=0.6, synthesis of the GST-Rap1B protein was induced by the addition of IPTG (50 mM) and by further incubation at 30° C. for 12 h. After centrifugation at 3,500 g for 15 min at 4° C., the cell pellet was frozen at −80° C. for 1 h. […] Protein concentration was determined by a Bradford assay and the protein purity was assessed by gel electrophoresis.

mutant Rap1B enzyme = molecular target: T5, mutant Rap1B enzyme (Homo sapiens, UniProt P61224, L19A/N116A); test: Selective binding to mutant Rap1B (alanine at positions 19 and 116); conditions: FIG. 33B
T5 construct: made in house; host or cells: E. coli BL21-Gold, pGEX-4T
T5 sequence (P61224 1-184 L19A/N116A): T4 sequence (P61224 1-184) with L19A, N116A
Text: as §4, §5

[1] = molecular target: T6, mutant enzyme (19A-116A) Ras binding to the Ras binding domain (RBD) of the Raf kinase (Homo sapiens, UniProt P01112, L19A/N116A); test: Effector binding assay: pull-down with Ras binding domain (RBD) of Raf kinase, western blot; type: biochemical; conditions: FIG. 35
T6 construct: GST (N); made in house; host or cells: E. coli BL21-Gold, pGEX vector (Ras)
Method: The ability of the mutant enzyme (19A-116A) to bind to a known effector of H-Ras was confirmed. Using the Ras binding domain (RBD) of the Raf kinase, the ability of the mutant enzyme to undergo a conformational change upon GTP binding, and, thus, to bind the effector was determined. In brief, purified mutant or wild-type proteins (150 ng) were incubated in 1 mL of loading buffer (100 mM Tris-HCl pH 7.5, 2 mM EDTA, 1 mM DTT, 1 mg/mL BSA) in the presence of 10 mM of GDP, GTP, 7 d or both GTP and 7 d for 15 min at 25° C. for loading the protein with the appropriate nucleotides. Following loading, MgCl2 (20 mM) was added along with GST-RBD (1.2 mg), comprising Raf kinase amino acids 53-131, bound to glutathione sepharose beads. The resulting suspensions were incubated with rotation for 30 min at 4° C. The beads were then washed three times with 1 mL of washing buffer (50 mM Tris-HCl pH 7.5, 50 mM NaCl, 20 mM MgCl2, 1 mM DTT) to remove unbound H-Ras proteins. The beads were boiled in SDS loading buffer, and the samples were separated by electrophoresis. Following transfer, the PVDF membrane was probed with anti-H-Ras and the amount of H-Ras bound to the RBD glutathione sepharose beads was visualized using anti-rabbit HRP in conjunction with WestPico (Pierce).

wild type H-Ras = molecular target: T7, wild type H-Ras (Homo sapiens, UniProt P01112); test: Ras inhibitor / guanine nucleotide exchange assay with 3H-GDP, wild type; type: binding; conditions: at a concentration of 100 μM
T7 construct: made in house; host or cells: E. coli BL21-Gold, pGEX vector
Text: as §1
The GTPase modulators of the present invention were screened against wild-type and/or mutant GTPases for their effectiveness as GTPase inhibitors. […]
as §2
Cold GDP was used as a positive control. […] All of the measurements are in comparison to a background radioactivity count, such that the level of inhibition for a given compound was determined by the number of counts in comparison to the control. Thus, a high radioactivity count is indicative of a high level of binding between the mutant GTPase and the radioactive GDP.

Molecule | IC50 (mutant Ras (19A-116A)) [µM] | inhibition of the mutant GTPase (decrease in radiolabel remaining bound) (single mutant N116G Ras) | effect on the wild-type Rap1B enzyme (wild-type Rap1B enzyme) | binding to the mutant Rap1B enzyme (mutant Rap1B enzyme) | displacement of radioactive GDP from the mutant GTPase (mutant Ras (19A-116A)) | effector (Raf RBD) binding of the mutant enzyme [1] | further results
6-S-mercaptoguanosine-5′-phosphate [Compound 82] | – | – | – | – | – | – | inhibitory effect on the N116C mutant (GTPase mutant N116C): 50-80%
Nc1nc2c(ncn2[C@@H]2O[C@H](COP(=O)(O)OP(=O)(O)O)[C@@H](O)[C@H]2O)c(=O)[nH]1 [GDP, reference compound] | ~1.5 | – | – | – | – | – | –
C=CCOc1nc(N)nc2c1ncn2[C@@H]1O[C@H](COP(=O)(O)OP(=O)(O)OP(=O)(O)O)[C@@H](O)[C@H]1O [Compound 43, 6-O-allyl guanosine-5′-triphosphate] | – | significantly inhibit | – | – | – | – | –
(2-phenyl)ethyl-GTP [Compound 52] | – | – | negligably affecting | bind tightly | displaced the radioactive GDP | prompts effector binding | –
Nc1nc2c(c(CCc3ccccc3)cn2[C@@H]2O[C@H](COP(=O)(O)OP(=O)(O)O)[C@@H](O)[C@H]2O)c(=O)[nH]1 [Compound 60, 7-deaza-7-(2″-phenyl)ethyl guanosine-5′-diphosphate] | 0.3 | – | negligably affecting | bind tightly | displaced the radioactive GDP | prevents effector binding | inhibition of wild-type H-Ras (wild type H-Ras): does not inhibit; potency relative to GDP at displacing GTP from the mutant GTPase protein (mutant Ras (19A-116A); ratio of IC50 values): 5 times
Nc1nc(=S)c2ncn([C@@H]3O[C@H](COP(=O)(O)OP(=O)(O)OP(=O)(O)O)[C@@H](O)[C@H]3O)c2[nH]1 [Compound 45, 6-S-mercaptoguanosine-5′-triphosphate] | – | significantly inhibit | – | – | – | – | –
